# Test results as given in patent US9060971B2, “Combination pharmaceutical agents as inhibitors of HCV replication” (Enanta Pharmaceuticals, Inc., priority 2010, dated 2015).
# Legend:
# [1] = system: "Huh-luc/neo-ET" HCV replicon; test: In vitro synergy assay, two drug combinations, luciferase, Bliss additivity; type: cell-based; details: 72 h
# Description: The coding sequence of the published HCV replicon was synthesized and subsequently assembled in a modified plasmid pBR322 (Promega, Madison, Wis.) using standard molecular biology techniques. One replicon cell line (“SGR 11-7”) stably expresses HCV replicon RNA which consists of (i) the HCV 5′UTR fused to the first 12 amino acids of the capsid protein, (ii) the neomycin phosphotransferase gene (neo), (iii) the IRES from encephalomyocarditis virus (EMCV), and (iv) HCV NS2 to NS5B genes and the HCV 3′UTR. Another replicon cell line (“Huh-luc/neo-ET”) described by Vrolijk et. al. (Vrolijk et. al. (2003) Journal of Virological Methods 110:201-209, expressly incorporated by reference in its entirety) stably expresses HCV replicon RNA which consists of (i) the HCV 5′UTR fused to the first 12 amino acids of the capsid protein, (ii) the firefly luciferase reporter gene, (iii) the ubiquitin gene, (iv) the neomycin phosphotransferase gene (neo), (v) the IRES from encephalomyocarditis virus (EMCV), and (vi) HCV NS3 to NS5B genes that harbor cell culture adaptive mutations (E1202G, T12801, K1846T) and the HCV 3′UTR.
# Since clinical drug resistance often develops in viral infections following single agent therapies, there is a need to assess the additive, antagonistic, or synergistic properties of combination therapies. We used the HCV replicon system to assess the potential use of our NS5A inhibitors in combination therapies with Interferon alpha, cyclosporine analogs and inhibitors targeting other HCV proteins. The acute effects of combinations of drugs were studied in the “Huh-luc/neo-ET” replicon with each chemical agent titrated in an X or Y direction in a 6 point two-fold dilution curve centered around the EC50 of each drug. Briefly, replicon cells were seeded at 7,000 cells per well in 90 ul DMEM (without phenol red, Invitrogen Cat. #31053-036) per well with 10% FCS, 1% non-essential amino acids, 1% of Glutamax and 1% of 100× penicillin/streptomycin and incubated overnight at 37° C., 5% C02, 100% relative humidity. 16-20 h after seeding cells, test compounds previously solubilized and titrated in dimethyl sulfoxide (“DMSO”) from each X plate and Y plate were diluted 1:100 in DMEM (without phenol red, Invitrogen Cat. #31053-036) with 10% FCS, 1% non-essential amino acids, 1% of Glutamax and 1% of 100× penicillin/streptomycin and added directly to the 96-well plate containing cells and growth medium at a 1:10 dilution for a final dilution of compound and DMSO of 1:1000 ([…] final concentration). Drug treated cells were incubated at 37° C., 5% C02, 100% relative humidity for 72 hours before performing a luciferase assay using 100 ul per well BriteLite Plus (Perkin Elmer) according to the manufacturer's instructions. Data analysis utilizes the method published by Prichard and Shipman (Antiviral Research, 1990. 14:181-205). Using this method, the combination data were analyzed for antagonistic, additive, or synergistic combination effects across the entire combination surface created by the diluted compounds in combination.
# We used the HCV replicon system to assess the potential use of our NS5A inhibitor in combination therapies with Interferon alpha, cyclosporine analogs or inhibitors targeting other HCV proteins. Several HCV antivirals, including protease inhibitors (ITMN-191, SCH503034, VX-950), a nucleoside analog (such as those described in WO01/90121(A2), U.S. Pat. No. 6,348,587B1, WO01/60315 or WO01/32153), a nonnucleoside NS5B polymerase inhibitor (GSK625433), a cyclosporine analog, as well as Interferon alpha, are tested in combination with Compounds 90, 93 or 95 herein, inhibitors of HCV NS5A. Antivirals were tested at five concentrations each, diluted in DMSO by 2-fold dilutions. The antivirals were tested as monotherapies and in combination with Compounds 90, 93 or 95 (described herein) at various concentration ratios. […]
# HCV 1b genotype replicon = test: HCV replicon drug screening assay (quantitative RT-PCR or luciferase), genotype 1b; type: cell-based; details: Hepatitis C virus; HCV 1b genotype replicon; quantitative RT-PCR or luciferase assay; read-out: Genotype-1b replicon EC50 Range
# In short: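 Huh-derived subgenomic genotype 1b replicon lines (SGR 11-7, neo; Huh-luc/neo-ET, firefly luciferase with adaptive mutations) grown at 37 °C. EC50 from HCV RNA by TaqMan one-step qRT-PCR normalised to GAPDH RNA. Cytotoxicity measured in parallel by MTS.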
# [2] = in combination with Boceprevir (SCH503034)
# [3] = in combination with Cyclosporine analog
# [4] = in combination with Interferon-alpha
# [5] = in combination with Telaprevir (VX-950)
compound,measurement,setting,value
COC(=O)N[C@H](C(=O)N1CCC[C@H]1c1ncc(-c2ccc(C#Cc3ccc4nc([C@@H]5CCCN5C(=O)[C@@H](NC(=O)OC)C(C)C)[nH]c4c3)cc2)[nH]1)C(C)C [Compound 90],"Bliss Volume (%) at 95% Confidence Intervals, Antagonism",[1]; [2],0%
same,"Bliss Volume (%) at 95% Confidence Intervals, Synergy",[1]; [2],48%
same,Result (combination effect),[1]; [2],Synergistic
same,Synergy Score,[1]; [2],48%
same,"Bliss Volume (%) at 95% Confidence Intervals, Antagonism",[1]; [3],0%
same,"Bliss Volume (%) at 95% Confidence Intervals, Synergy",[1]; [3],0%
same,Result (combination effect),[1]; [3],Additive
same,Synergy Score,[1]; [3],0%
same,"Bliss Volume (%) at 95% Confidence Intervals, Antagonism",[1]; in combination with GSK625433,−1%
same,"Bliss Volume (%) at 95% Confidence Intervals, Synergy",[1]; in combination with GSK625433,12%
same,Result (combination effect),[1]; in combination with GSK625433,Additive
same,Synergy Score,[1]; in combination with GSK625433,11%
same,"Bliss Volume (%) at 95% Confidence Intervals, Antagonism",[1]; in combination with ITMN-191,−9%
same,"Bliss Volume (%) at 95% Confidence Intervals, Synergy",[1]; in combination with ITMN-191,2%
same,Result (combination effect),[1]; in combination with ITMN-191,Additive
same,Synergy Score,[1]; in combination with ITMN-191,−7%
same,"Bliss Volume (%) at 95% Confidence Intervals, Antagonism",[1]; [4],−14%
same,"Bliss Volume (%) at 95% Confidence Intervals, Synergy",[1]; [4],6%
same,Result (combination effect),[1]; [4],Additive
same,Synergy Score,[1]; [4],−8%
same,"Bliss Volume (%) at 95% Confidence Intervals, Antagonism",[1]; in combination with R7128,0%
same,"Bliss Volume (%) at 95% Confidence Intervals, Synergy",[1]; in combination with R7128,34%
same,Result (combination effect),[1]; in combination with R7128,Synergistic
same,Synergy Score,[1]; in combination with R7128,34%
same,"Bliss Volume (%) at 95% Confidence Intervals, Antagonism",[1]; [5],−1%
same,"Bliss Volume (%) at 95% Confidence Intervals, Synergy",[1]; [5],0%
same,Result (combination effect),[1]; [5],Additive
same,Synergy Score,[1]; [5],−1%
same,EC50,HCV 1b genotype replicon,< 1 nM
COC(=O)N[C@H](C(=O)N1CC2(CC2)C[C@H]1c1nc(-c2ccc(C#Cc3ccc4[nH]c([C@@H]5CC6(CC6)CN5C(=O)[C@@H](NC(=O)OC)C(C)C)nc4c3)cc2)c[nH]1)C(C)C [Compound 95],"Bliss Volume (%) at 95% Confidence Intervals, Antagonism",[1]; [2],0%
same,"Bliss Volume (%) at 95% Confidence Intervals, Synergy",[1]; [2],44%
same,Result (combination effect),[1]; [2],Synergistic
same,Synergy Score,[1]; [2],44%
same,"Bliss Volume (%) at 95% Confidence Intervals, Antagonism",[1]; in combination with GSK625433,0%
same,"Bliss Volume (%) at 95% Confidence Intervals, Synergy",[1]; in combination with GSK625433,0%
same,Result (combination effect),[1]; in combination with GSK625433,Additive
same,Synergy Score,[1]; in combination with GSK625433,0%
same,"Bliss Volume (%) at 95% Confidence Intervals, Antagonism",[1]; in combination with ITMN-191,0%
same,"Bliss Volume (%) at 95% Confidence Intervals, Synergy",[1]; in combination with ITMN-191,5%
same,Result (combination effect),[1]; in combination with ITMN-191,Additive
same,Synergy Score,[1]; in combination with ITMN-191,5%
same,"Bliss Volume (%) at 95% Confidence Intervals, Antagonism",[1]; [4],−2%
same,"Bliss Volume (%) at 95% Confidence Intervals, Synergy",[1]; [4],0%
same,Result (combination effect),[1]; [4],Additive
same,Synergy Score,[1]; [4],−2%
same,"Bliss Volume (%) at 95% Confidence Intervals, Antagonism",[1]; in combination with R7128,0%
same,"Bliss Volume (%) at 95% Confidence Intervals, Synergy",[1]; in combination with R7128,28%
same,Result (combination effect),[1]; in combination with R7128,Synergistic
same,Synergy Score,[1]; in combination with R7128,28%
same,"Bliss Volume (%) at 95% Confidence Intervals, Antagonism",[1]; [5],0%
same,"Bliss Volume (%) at 95% Confidence Intervals, Synergy",[1]; [5],5%
same,Result (combination effect),[1]; [5],Additive
same,Synergy Score,[1]; [5],5%
same,EC50,HCV 1b genotype replicon,< 1 nM
COC(=O)N[C@H](C(=O)N1CCC[C@H]1c1nc2cc(C#Cc3ccc(-c4c[nH]c([C@@H]5CCCN5C(=O)[C@@H](c5ccccc5)C(C)C)n4)cc3)ccc2[nH]1)C(C)C [Compound 87],EC50,HCV 1b genotype replicon,< 1 nM
COC(=O)N[C@H](C(=O)N1CCC[C@H]1c1nc(-c2ccc3cc(-c4cc5nc([C@@H]6CCCN6C(=O)[C@@H](NC(=O)OC)C(C)C)[nH]c5cc4Cl)ccc3c2)c[nH]1)C(C)C [Compound 68],EC50,HCV 1b genotype replicon,< 1 nM
COC(=O)N[C@@H](C(=O)N1CCC[C@H]1c1nc(-c2ccc(C#Cc3ccc4[nH]c([C@@H]5CCCN5C(=O)[C@H](NC(=O)OC)c5ccccc5)nc4c3)cc2)n[nH]1)c1ccccc1 [Compound 39],EC50,HCV 1b genotype replicon,< 1 nM
CCC[C@H](NC(=O)OC)C(=O)N1CCC[C@H]1c1nc2cc(C#Cc3ccc(-c4c[nH]c([C@@H]5CCCN5C(=O)[C@@H](NC(=O)OC)C(C)C)n4)cc3)ccc2[nH]1 [Compound 78],EC50,HCV 1b genotype replicon,< 1 nM
COC(=O)N[C@@H](C(=O)N1CCC[C@H]1c1nc2cc(CCCc3ccc4nc([C@@H]5CCCN5C(=O)[C@H](NC(=O)OC)c5ccccc5)[nH]c4c3)ccc2[nH]1)c1ccccc1 [Compound 31],EC50,HCV 1b genotype replicon,< 1 nM
C=C1C[C@@H](c2nc(-c3ccc(C#Cc4ccc5[nH]c([C@@H]6CCCN6C(=O)[C@@H](NC(=O)OC)C(C)C)nc5c4)cc3)c[nH]2)N(C(=O)[C@@H](NC(=O)OC)C(C)C)C1 [Compound 118],EC50,HCV 1b genotype replicon,< 1 nM
COC(=O)N[C@H](C(=O)N1CCC[C@H]1c1nc2cc(-c3ccc(-c4ccc5[nH]c([C@@H]6CCCN6C(=O)[C@@H](NC(=O)OC)C6CCCC6)nc5c4)cc3)ccc2[nH]1)C1CCCC1 [Compound 24],EC50,HCV 1b genotype replicon,< 1 nM
CC[C@H](C)[C@H](NC(=O)OC)C(=O)N1CCC[C@H]1c1nc2cc(-c3ccc(-c4ccc5[nH]c([C@@H]6CCCN6C(=O)[C@@H](NC(=O)OC)[C@@H](C)CC)nc5c4)cc3)ccc2[nH]1 [Compound 26],EC50,HCV 1b genotype replicon,< 1 nM
COC(=O)N[C@H](C(=O)N1CCC[C@H]1c1nc(-c2ccc3cc(-c4ccc5[nH]c([C@@H]6CCCN6C(=O)[C@@H](NC(=O)OC)C(C)C)nc5n4)ccc3c2)c[nH]1)C(C)C [Compound 114],EC50,HCV 1b genotype replicon,< 1 nM
COCCOC(=O)N[C@H](C(=O)N1CCC[C@H]1c1nc2cc(-c3ccc(-c4ccc5[nH]c([C@@H]6CCCN6C(=O)[C@@H](NC(=O)OCCOC)C(C)C)nc5c4)cc3)ccc2[nH]1)C(C)C [Compound 23],EC50,HCV 1b genotype replicon,> 10 nM
COC(=O)N[C@H](C(=O)N1CCC[C@H]1c1nc(-c2ccc3cc(-c4ccc5[nH]c([C@@H]6CCCN6C(=O)[C@H](NC(=O)OC)c6ccccc6)nc5c4)ccc3c2)c[nH]1)[C@@H](C)OC [Compound 51],EC50,HCV 1b genotype replicon,< 1 nM
